Data as given in US8759340B2, “Benzodiazepinone compounds useful in the treatment of skin conditions” (The Regents of the University of Michigan, priority 2007, dated 2014).
“Also recorded” adds a separate entry of the source.

What was measured:
Ramos cells = experiment: Cytotoxicity against Ramos cells; assay type: cell-based; conditions: Homo sapiens, read-out: EC50 in causing death of Ramos cells
Text: The compounds described herein can be tested for activity against F1F0-ATPase by measuring ATP synthesis and ATP hydrolysis. In addition, the compounds described herein can be evaluated for cytotoxicity against Ramos cells. Inhibition of ATP synthesis and hydrolysis by the F1F0-ATPase and cytotoxicity in Ramos cells can be measured as described in K. M. Johnson et al. in Chemistry & Biology (2005) Vol. 12, pp. 485-496.

[1] = tested on: Human Skin Organ Cultures; experiment: Toxicity (epidermal necrosis) in human skin organ cultures; assay type: cell-based; conditions: necrosis on 0 to 4+ scale, scores ≦1 normal, 8 days organ culture, n=6
Text: (§1) Replicate 6-mm punch biopsies of full-thickness psoriatic plaque skin were obtained from human skin donors with psoriasis. These biopsies were used in the transplant studies. Six-mm punch biopsies of sun-protected (hip) skin from non-psoriatic donors were obtained as controls. In addition, replicate 2-mm full-thickness punch biopsies of sun-protected hip skin were obtained from normal donors for use in organ culture studies.
(§2) Immediately upon biopsy, the replicate 2-mm punch biopsies (non-psoriatic skin only) were immersed in culture medium consisting of Keratinocyte Basal Medium (KBM) (Lonza, Walkersville, Md.). KBM is a low-Ca^2+, serum-free modification of MCDB-153 medium. It was supplemented with CaCl2 to bring the final Ca^2+ concentration to 1.4 mM. Biopsies were incubated in wells of a 24-well dish containing 400 μl of Ca^2+-supplemented KBM with or without additional treatments (RA and/or Compound H). Cultures were incubated at 37° C. in an atmosphere of 95% air and 5% CO2. Other than to maintain the tissue in a minimal volume of medium, nothing further was done to ensure a strict air-liquid interface. Incubation was for 8 days, with change of medium and fresh treatments provided every second day. At the end of the incubation period, tissue was fixed in 10% buffered formalin and examined histologically after staining with hematoxylin and eosin. Routinely, 3-6 tissue sections were prepared from each block. Epidermal thickness measurements were made at several sites in each tissue section (distance from the dermal-epidermal juncture to the top of the viable portion of the epithelium). The organ culture procedure employed here has been described in the past (Varani et al. (1993) Amer. J. Pathol. 142:189-198; and Varani et al., (1994) J. Clin. Invest. 94:1747-1753). In order to evaluate the toxicity of compound H, tissue was examined histologically and necrosis was assessed on a 0 to 4+ scale, with 0 indicating no change from control and 4+ indicating complete necrosis of the epidermis (n=6). Scores ≦1 were taken as normal.

[2] = tested on: RA-induced epidermal hyperplasia; experiment: Inhibition of RA-induced epidermal hyperplasia in human skin organ cultures; assay type: cell-based; conditions: for Percent Reduction in Retinoid-Induced Hyperplasia (%): reduction in epidermal thickness vs RA alone, n=3
Text: as §1, §2
The average epidermal thickness in the absence of RA was 70-90 μm, while the average epidermal thickness was 275 μm in cells exposed to RA.

[3] = tested on: human foreskin fibroblasts (HFF); experiment: Fibroblast proliferation assay; assay type: cell-based; conditions: Homo sapiens; for inhibition at 1 µM / inhibition at 0.05 µM / inhibition at 0.1 µM / inhibition at 0.5 µM / inhibition at 5 µM / inhibition at 10 µM: 48 h, HFF, day 2, read-out: Percent Inhibition of Cells Per Concentration of Test Compound
Experimental: Fibroblasts obtained from the same tissue were grown in monolayer culture using Dulbecco's modified minimal essential medium supplemented with nonessential amino acids and 10% fetal bovine serum (DMEM-FBS) as culture medium. Both keratinocytes and fibroblasts were maintained at 37° C. in an atmosphere of 95% air and 5% CO2. Cells were subcultured by exposure to trypsin/ethylenediamine tetraacetic acid (EDTA) and used at passage 2-4.
(§3) Keratinocyte proliferation was assessed by seeding 4×10^4 cells per well in a 24-well plate using KGM as culture medium. After the cells had attached (overnight), they were washed and triplicate samples were harvested for zero-time counts. DMSO served as a negative control. Proliferation was measured on day 2 by releasing the cells with trypsin/EDTA and enumerating them using a particle counter (Coulter Electronics, Hialeah, Fla.). Fibroblast proliferation studies were conducted in a similar manner except that […] was used as culture medium.
(§4) KC refers to human keratinocytes. HFF refers to human foreskin fibroblasts. The cLogP values were calculated using ChemDraw™ (CambridgeSoft).

human keratinocytes (KC) = experiment: Keratinocyte proliferation assay; assay type: cell-based; conditions: Homo sapiens, Keratinocyte; for inhibition at 0.05 µM / inhibition at 0.1 µM / inhibition at 0.5 µM / inhibition at 1 µM / inhibition at 5 µM / inhibition at 10 µM: 48 h, KC, day 2, read-out: Percent Inhibition of Cells Per Concentration of Test Compound
Experimental: Epidermal keratinocytes were isolated from fresh tissue biopsies as described previously (Varani et al., (1994) J. Clin. Invest. 94:1747-1753). Primary and early passage cells were maintained in Keratinocyte Growth Medium (KGM) (Lonza). KGM contains the same basal medium as KBM but is further supplemented with a mixture of growth factors including 0.1 ng per mL EGF, 0.5 μg per mL insulin, and 0.4% bovine pituitary extract. In addition to using low-passage keratinocytes, we also used the HaCat line of immortalized human epidermal keratinocytes in some experiments. The immortalized keratinocytes were handled exactly as low-passage keratinocytes.
as §3, §4

Row | Structure (SMILES) | inhibition at 1 µM [3] | inhibition at 0.05 µM ([3]; Fibroblast) | inhibition at 0.1 µM ([3]; Fibroblast) | inhibition at 0.5 µM ([3]; Fibroblast) | inhibition at 5 µM ([3]; Fibroblast) | inhibition at 10 µM ([3]; Fibroblast) | inhibition at 0.05 µM (human keratinocytes (KC)) | inhibition at 0.1 µM (human keratinocytes (KC)) | inhibition at 0.5 µM (human keratinocytes (KC)) | inhibition at 1 µM (human keratinocytes (KC)) | inhibition at 5 µM (human keratinocytes (KC)) | inhibition at 10 µM (human keratinocytes (KC)) | other results
1 | Cc1ccccc1CC1N=C(c2ccc(F)cc2)c2cc(Cl)ccc2NC1=O (stereo not drawn) [7-Chloro-5-(4-fluorophenyl)-3-(2-methylbenzyl)-1H-benzo[e][1,4]diazepin-2(3H)-one] |  |  |  |  |  |  |  |  |  |  |  |  | EC50 (Ramos cells): 7900 nM
2 | Cc1cccc(C)c1CC1N=C(c2ccc(O)cc2)c2cc(Cl)ccc2N(C)C1=O (stereo not drawn) [Compound 1, (Z)-7-chloro-3-(2,6-dimethylbenzyl)-5-(4-hydroxyphenyl)-1-methyl-1H-benzo[e][1,4]diazepin-2(3H)-one] | < 20% | < 20% | < 20% | < 20% | ≥ 90% | ≥ 90% | < 20% | < 20% | < 20% | ≥ 20% | ≥ 90% | ≥ 90% | Toxicity ([1]; 0.5 μM compound H, listed as Compound H): no detectable toxicity; also recorded: None detected; Toxicity ([1]; 1.0 μM compound H, listed as Compound H): no detectable toxicity; also recorded: None detected; Toxicity ([1]; 2.0 μM compound H, listed as Compound H): 2.0 + 0.5; Toxicity ([1]; 2.0 μM compound H, listed as compound H): Slight toxicity; Percent Reduction in Retinoid-Induced Hyperplasia (%) ([2]; 0.5 μM compound H): 40 + 10%; Percent Reduction in Retinoid-Induced Hyperplasia (%) ([2]; 1.0 μM compound H): 48 + 15%; Percent Reduction in Retinoid-Induced Hyperplasia (%) ([2]; 2.0 μM compound H): >95%; EC50 ([3]; Fibroblast, based on the data from the cell proliferation assays, read-out: EC50 against proliferation of human foreskin fibroblasts): 1400 ± 300 nM; EC50 (human keratinocytes (KC); based on the data from the cell proliferation assays, read-out: EC50 against proliferation of human keratinocyte cells): 700 ± 100 nM
3 | CCc1ccc(CC2N=C(c3ccc(F)cc3)c3cc(Cl)ccc3NC2=O)cc1CC (stereo not drawn) [Compound 11, (Z)-7-Chloro-3-(3,4-diethylbenzyl)-5-(4-fluorophenyl)-1H-benzo[e][1,4]diazepin-2(3H)-one] | < 20% | < 20% | < 20% | < 20% | < 20% | ≥ 90% | < 20% | < 20% | < 20% | < 20% | ≥ 90% | ≥ 90% | melting point: 88 to 90 °C
4 | CC1=C(/C=C/C(C)=C/C=C/C(C)=C/C(=O)O)C(C)(C)CCC1 [RA, all-trans retinoic acid, reference compound] |  |  |  |  |  |  |  |  |  |  |  |  | average epidermal thickness ([2]; exposed to RA alone, 70-90 μm in the absence of RA): 275 μm
